# Assay results reported in US11505543B2, “4-oxo-3,4-dihydroquinazoline compounds as inhibitors of human immunodeficiency virus replication” (VIIV HEALTHCARE UK (NO.5) LIMITED, priority 2018, dated 2022).
# pEC50: −log10 of the molar value.
# Columns and labels:
# [1] = system: recombinant NL4-3 virus (nef section replaced with Renilla luciferase gene) in MT-2 cells; experiment: HIV cell culture assay (antiviral activity, luciferase readout); type: cell-based; conditions: Renilla, NL43, MT-2 cells infected for 4-5 days with recombinant NL4-3 Renilla luciferase virus, serial dilutions of compound
# Description: HIV cell culture assay—MT-2 cells, 293T cells and the proviral DNA clone of NL4-3 virus were obtained from the NIH AIDS Research and Reference Reagent Program. MT-2 cells were propagated in RPMI 1640 media supplemented with 10% heat inactivated fetal bovine serum (FBS), 100 μg/ml penicillin G and up to 100 units/mL streptomycin. The 293T cells were propagated in DMEM media supplemented with 10% heat inactivated FBS, 100 μg/mL penicillin G and 100 μg/mL streptomycin. A recombinant NL4-3 proviral clone, in which a section of the nef gene was replaced with the Renilla luciferase gene, was used to make the reference virus used in these studies. The recombinant virus was prepared through transfection of the recombinant NL4-3 proviral clone into 293T cells using Transit-293 Transfection Reagent from Mirus Bio LLC (Madison, Wis.). Supernatent was harvested after 2-3 days and the amount of virus present was titered in MT-2 cells using luciferase enzyme activity as a marker by measuring luciferase enzyme activity. Luciferase was quantitated using the EnduRen Live Cell Substrate from Promega (Madison, Wis.). Antiviral activities of compounds toward the recombinant virus were quantified by measuring luciferase activity in MT-2 cells infected for 4-5 days with the recombinant virus in the presence of serial dilutions of the compound.
# The 50% effective concentration (EC50) was calculated by using the exponential form of the median effect equation where (Fa)=1/[1+(ED50/drug conc.)^m] (Johnson VA, Byington RT. Infectivity Assay. In Techniques in HIV Research. ed. Aldovini A, Walker BD. 71-76. New York: Stockton Press. 1990). Curve fitting and analysis were performed with ActivityBase XE Runner software version 9.1.0.4 using model 203 (ID Business Solutions, LTD, Guildford, UK).
# [2] = Compound cytotoxicity, XTT-based colorimetric assay; type: cell-based; conditions: human, uninfected MT2 cells, day 4, XTT
# Description: Compound cytotoxicity and the corresponding CC50 values were determined using the same protocol as described in the antiviral assay except that uninfected cells were used. Cytotoxicity was assessed on day 4 in uninfected MT2 cells by using a XTT (2,3-bis[2-Methoxy-4-nitro-5-sulfophenyl]-2H-tetrazolium-5-carboxyanilide inner salt)-based colorimetric assay (Sigma-Aldrich, St Louis, Mo.).
SMILES,pEC50 [1],CC50 at 4 day [2]
"Cn1nc(NS(C)(=O)=O)c2c(Cl)ccc(-n3c([C@H](Cc4cc(F)cc(F)c4)NC(=O)Cn4nc(C(F)F)c5c4C(F)(F)[C@@H]4C[C@H]54)nc4cc(-c5ccc(-c6ccccc6)cc5)ccc4c3=O)c21 (atropisomer, axis not shown; (aR)) [Example 101, N-((S)-1-(7-([1,1′-biphenyl]-4-yl)-3-(4-chloro-1-methyl-3-(methylsulfonamido)-1H-indazol-7-yl)-4-oxo-3,4-dihydroquinazolin-2-yl)-2-(3,5-difluorophenyl)ethyl)-2-((3bS,4aR)-3-(difluoromethyl)-5,5-difluoro-3b,4,4a,5-tetrahydro-1H-cyclopropa[3,4]cyclopenta[1,2-c]pyrazol-1-yl)acetamide]",7.21,> 1000 nM
"CC(C)Oc1ccccc1-c1ccc2c(=O)n(-c3ccc(Cl)c4c(NS(C)(=O)=O)nn(C)c34)c([C@H](Cc3cc(F)cc(F)c3)NC(=O)Cn3nc(C(F)F)c4c3C(F)(F)[C@@H]3C[C@H]43)nc2c1 [Example 181, N-((S)-1-(3-(4-chloro-1-methyl-3-(methylsulfonamido)-1H-indazol-7-yl)-7-(2-isopropoxyphenyl)-4-oxo-3,4-dihydroquinazolin-2-yl)-2-(3,5-difluorophenyl)ethyl)-2-((3bS,4aR)-3-(difluoromethyl)-5,5-difluoro-3b,4,4a,5-tetrahydro-1H-cyclopropa[3,4]cyclopenta[1,2-c]pyrazol-1-yl)acetamide]",9.15,> 500 nM
"Cn1nc(NS(C)(=O)=O)c2c(Cl)ccc(-n3c([C@H](Cc4cc(F)cc(F)c4)NC(=O)Cn4nc(C(F)F)c5c4C(F)(F)[C@@H]4C[C@H]54)nc4cc(-c5ccc(C(=O)N6CCCCC6)cc5)ccc4c3=O)c21 (atropisomer, axis not shown; (aR)) [Example 34, N-((S)-1-(3-(4-chloro-1-methyl-3-(methylsulfonamido)-1H-indazol-7-yl)-4-oxo-7-(4-(piperidine-1-carbonyl)phenyl)-3,4-dihydroquinazolin-2-yl)-2-(3,5-difluorophenyl)ethyl)-2-((3bS,4aR)-3-(difluoromethyl)-5,5-difluoro-3b,4,4a,5-tetrahydro-1H-cyclopropa[3,4]cyclopenta[1,2-c]pyrazol-1-yl)acetamide]",9.34,> 1000 nM
"Cc1ccnc(-c2ccc3c(=O)n(-c4ccc(Cl)c5c(NS(C)(=O)=O)nn(CC(F)(F)F)c45)c([C@H](Cc4cc(F)cc(F)c4)NC(=O)Cn4nc(C(F)F)c5c4C(F)(F)[C@@H]4C[C@H]54)nc3c2)n1 [Example 162, N-((S)-1-(3-(4-chloro-3-(methylsulfonamido)-1-(2,2,2-trifluoroethyl)-1H-indazol-7-yl)-7-(4-methylpyrimidin-2-yl)-4-oxo-3,4-dihydroquinazolin-2-yl)-2-(3,5-difluorophenyl)ethyl)-2-((3bS,4aR)-3-(difluoromethyl)-5,5-difluoro-3b,4,4a,5-tetrahydro-1H-cyclopropa[3,4]cyclopenta[1,2-c]pyrazol-1-yl)acetamide]",10.23,> 500 nM
"Cn1nc(NS(C)(=O)=O)c2c(Cl)ccc(-n3c([C@H](Cc4cc(F)cc(F)c4)NC(=O)Cn4nc(C(F)F)c5c4C(F)(F)[C@@H]4C[C@H]54)nc4cc(-c5ccc(C(=O)O)cc5)ccc4c3=O)c21 (atropisomer, axis not shown; (aR)) [Example 100, 4-(3-(4-chloro-1-methyl-3-(methylsulfonamido)-1H-indazol-7-yl)-2-((S)-1-(2-((3bS,4aR)-3-(difluoromethyl)-5,5-difluoro-3b,4,4a,5-tetrahydro-1H-cyclopropa[3,4]cyclopenta[1,2-c]pyrazol-1-yl)acetamido)-2-(3,5-difluorophenyl)ethyl)-4-oxo-3,4-dihydroquinazolin-7-yl)benzoic acid]",8.19,> 1000 nM
"Cn1nc(NS(C)(=O)=O)c2c(Cl)ccc(-n3c([C@H](Cc4cc(F)cc(F)c4)NC(=O)Cn4nc(C(F)F)c5c4C(F)(F)[C@@H]4C[C@H]54)nc4cc(-c5ccc(Cl)c(F)c5)ccc4c3=O)c21 [Example 194, N-((S)-1-(3-(4-chloro-1-methyl-3-(methylsulfonamido)-1H-indazol-7-yl)-7-(4-chloro-3-fluorophenyl)-4-oxo-3,4-dihydroquinazolin-2-yl)-2-(3,5-difluorophenyl)ethyl)-2-((3bS,4aR)-3-(difluoromethyl)-5,5-difluoro-3b,4,4a,5-tetrahydro-1H-cyclopropa[3,4]cyclopenta[1,2-c]pyrazol-1-yl)acetamide]",8.11,> 1000 nM
"O=C(Cn1ccc(C2CC2)n1)N[C@@H](Cc1cc(F)cc(F)c1)c1nc2cc(-c3ccc(F)cc3F)ccc2c(=O)n1-c1ccc(S(=O)(=O)N2CCOCC2)cc1 [Example 12, (S)-2-(3-cyclopropyl-1H-pyrazol-1-yl)-N-(2-(3,5-difluorophenyl)-1-(7-(2,4-difluorophenyl)-3-(4-(morpholinosulfonyl)phenyl)-4-oxo-3,4-dihydroquinazolin-2-yl)ethyl)acetamide]",8.08,> 1000 nM
"CC(C)c1ccc(-n2c([C@H](Cc3cc(F)cc(F)c3)NC(=O)Cn3nc(C(F)F)c4c3C(F)(F)[C@@H]3C[C@H]43)nc3cc(-c4nnn[nH]4)ccc3c2=O)cn1 [Example 7, 2-((3bS,4aR)-3-(difluoromethyl)-5,5-difluoro-3b,4,4a,5-tetrahydro-1H-cyclopropa[3,4]cyclopenta[1,2-c]pyrazol-1-yl)-N-((S)-2-(3,5-difluorophenyl)-1-(3-(6-isopropylpyridin-3-yl)-4-oxo-7-(1H-tetrazol-5-yl)-3,4-dihydroquinazolin-2-yl)ethyl)acetamide]",5.38,> 1000 nM
"Cn1nc(NS(C)(=O)=O)c2c(Cl)ccc(-n3c([C@H](Cc4cc(F)cc(F)c4)NC(=O)Cn4nc(C(F)F)c5c4C(F)(F)[C@@H]4C[C@H]54)nc4cc(-c5cccc(S(C)(=O)=O)c5)ccc4c3=O)c21 (atropisomer, axis not shown; (aR)) [Example 54, N-((S)-1-(3-(4-chloro-1-methyl-3-(methylsulfonamido)-1H-indazol-7-yl)-7-(3-(methylsulfonyl)phenyl)-4-oxo-3,4-dihydroquinazolin-2-yl)-2-(3,5-difluorophenyl)ethyl)-2-((3bS,4aR)-3-(difluoromethyl)-5,5-difluoro-3b,4,4a,5-tetrahydro-1H-cyclopropa[3,4]cyclopenta[1,2-c]pyrazol-1-yl)acetamide]",9.68,> 1000 nM
"O=C(Cn1nc(C(F)F)cc1C(F)F)N[C@@H](Cc1cc(F)cc(F)c1)c1nc2cc(-c3ccccc3F)ccc2c(=O)n1-c1ccc(Cl)c2c(NS(=O)(=O)C3CC3)nn(CC(F)F)c12 (atropisomer, axis not shown) [Example 136, (S)-2-(3,5-bis(difluoromethyl)-1H-pyrazol-1-yl)-N-(1-(3-(4-chloro-3-(cyclopropanesulfonamido)-1-(2,2-difluoroethyl)-1H-indazol-7-yl)-7-(2-fluorophenyl)-4-oxo-3,4-dihydroquinazolin-2-yl)-2-(3,5-difluorophenyl)ethyl)acetamide]",8.02,> 1000 nM
"COc1cc(C)nc(-c2ccc3c(=O)n(-c4ccc(Cl)c5c(NS(C)(=O)=O)nn(C)c45)c([C@H](Cc4cc(F)cc(F)c4)NC(=O)Cn4nc(C(F)F)c5c4C(F)(F)[C@@H]4C[C@H]54)nc3c2)n1 (atropisomer, axis not shown; (aR)) [Example 131, N-((S)-1-(3-(4-chloro-1-methyl-3-(methylsulfonamido)-1H-indazol-7-yl)-7-(4-methoxy-6-methylpyrimidin-2-yl)-4-oxo-3,4-dihydroquinazolin-2-yl)-2-(3,5-difluorophenyl)ethyl)-2-((3bS,4aR)-3-(difluoromethyl)-5,5-difluoro-3b,4,4a,5-tetrahydro-1H-cyclopropa[3,4]cyclopenta[1,2-c]pyrazol-1-yl)acetamide]",9.96,> 500 nM
"Cc1ncc(-c2ccc3c(=O)n(-c4ccc(Cl)c5c(NS(C)(=O)=O)nn(CC(F)(F)F)c45)c([C@H](Cc4cc(F)cc(F)c4)NC(=O)Cn4nc(C(F)F)c5c4C(F)(F)[C@@H]4C[C@H]54)nc3c2)cn1 [Example 166, N-((S)-1-(3-(4-chloro-3-(methylsulfonamido)-1-(2,2,2-trifluoroethyl)-1H-indazol-7-yl)-7-(2-methylpyrimidin-5-yl)-4-oxo-3,4-dihydroquinazolin-2-yl)-2-(3,5-difluorophenyl)ethyl)-2-((3bS,4aR)-3-(difluoromethyl)-5,5-difluoro-3b,4,4a,5-tetrahydro-1H-cyclopropa[3,4]cyclopenta[1,2-c]pyrazol-1-yl)acetamide]",10.43,> 500 nM
